The test system of assay [1] is Host cells capable of producing recombinant adeno-associated virus of the AAV9 serotype (Expi293F cells). The assay is described as follows: Osmotic shock process: viral genomes (vg) recovered from media of rAAV-producing host cells. In kind it is cell-based. The settings on record: 0.5 M salt as osmotic shock reagent, added 4 days after transfection, 3 hours; vs negative control NT (FIG. 2). Here is the method: (§1) Expi293F cells (Cat #A14527, Thermo) were grown in Expi293 Expression Medium (Cat #A14351-02, Thermo) supplemented with 1% penicillin-streptomycin (Cat #15140122, Thermo). Then, the cells were maintained under serum-free suspension culture conditions. Herein, the serum-free suspension culture conditions were as follows: 120 rpm stirring rate in a shaker incubator (Cat #NB-206CL, N-biotek, South Korea); 37° C.; 8% CO2; and 85% relative humidity.
(§2) Expi293F cells were seeded in Expi293F expression media at a density of 2.5×10^6 cells per 1 mL and cultured for 3 hours. Then, the cells were transfected using 25-kDa linear PEI (Cat #23966-1, Polyscience, USA) along with the three plasmids (pHelper[Cat #112867, Addgene], pRC9n[Cat #112865, Addgene], and pAAV[Cat #105530, Addgene]), respectively. Specifically, the plasmids were mixed in DMEM (Cat #10569010, Thermo) at 1/10 the volume of cells to be transfected. Next, PEI was added to DNAs diluted in DMEM. After an additionally 20-minute culture, a DNA-PEI complex was added to the cells.
The following experiment was conducted to determine a yield improvement effect of the recombinant adeno-associated virus production process including the osmotic shock process depending on osmotic shock conditions:
Host cells capable of producing recombinant adeno-associated virus of the AAV9 serotype were prepared according to Experimental Examples 1.1 to 1.3.
For each experimental group, 2.5×10^6 cells per mL were seeded in a 30 mL culture vessel, and experiments were conducted using a total of 16 culture vessels for each experimental group.
On the basis of the time of transfection of the recombinant adeno-associated virus expression plasmid into the host cells, an osmotic shock reagent was added 4 days later, the condition was maintained for 3 hours, sample media and/or cells were harvested, and the viral genome was (vg) counts were measured.

The test system of assay [2] is Host cells capable of producing a recombinant adeno-associated virus of a AAV9 serotype (Expi293F cells). The assay is described as follows: Pre-culture treatment process: rAAV yield (total vg) of host cells. It is filed as cell-based. The following applies: pre-culture agent with PEI (1 mg/ml), Nocodazole 4 uM and/or M344 2.5 uM, 4 hours after transfection; osmotic shock after 4 days (FIG. 3). The protocol:
as §1, §2
The following experiment was conducted to determine a yield improvement effect of the recombinant adeno-associated virus production process including the pre-culture treatment process depending on pre-culture treatment conditions: […]

Experimental findings from patent US20260028596A1, “METHOD FOR PRODUCING HIGH YIELD AND HIGH QUALITY RECOMBINANT ADENO-[…]” (Aavatar Therapeutics Co.,Ltd., priority 2022, published 2026) are described below.

With `[Cl-].[K+]` [KCl, potassium chloride], the “number of viral genomes recovered from the media, by salt type” value in assay [1] is reported as “significant increase in the number of viral genomes recovered from the media”.

For `CN(C)c1ccc(C(=O)NCCCCCCC(=O)NO)cc1` [M344], the “yield of recombinant adeno-associated virus in the host cells” value in assay [2] is “yield of recombinant adeno-associated virus in the host cells was increased”. With `[Cl-].[Cl-].[Mg+2]` [MgCl2, magnesium chloride], the “number of viral genomes recovered from the media, by salt type” value in assay [1] is recorded as “significant increase in the number of viral genomes recovered from the media”. The same measure, in the same setting: the entry for `[Cl-].[Na+]` [NaCl, sodium chloride] is “significant increase in the number of viral genomes recovered from the media”. As for `COC(=O)Nc1nc2ccc(C(=O)c3cccs3)cc2[nH]1` [Nocodazole], in assay [2], the “yield of recombinant adeno-associated virus in the host cells” value is listed as “yield of recombinant adeno-associated virus in the host cells was increased”.
